Measured values from US20210395327A1, “Growth Hormone-Releasing Hormone Antagonists and Uses Thereof” (United States Government As Represented By The Department …, priority 2019, published 2021).
Non-standard residues stand in square brackets, D forms with d. Residues, ends and D or L forms follow the SMILES beside them. *: point of attachment. Phe(F5) = N[C@@H](Cc1c(F)c(F)c(F)c(F)c1F)C(=O)O; hArg = N=C(N)NCCCC[C@H](N)C(=O)O; 12Ado = NCCCCCCCCCCCC(=O)O; Nle = CCCC[C@H](N)C(=O)O; Orn = NCCC[C@H](N)C(=O)O; Abu = CC[C@H](N)C(=O)O; PhAc = O=C(Cc1ccccc1)*

Key:
[1] = tested on: PC3 prostatic cancer cells; assay: In vitro cell viability, PC3; type: cell-based, human; details: antagonist 5 μM for 72 h, cell proliferation assay; MIA602 = 1
Experimental: The inhibitory effects of the various synthesized GHRH antagonists were tested in cell proliferation assays in various human cancer cell lines including stomach cancer (KATOIII, N87), colon cancer (HT-29), urothelial cancer (J82, RT4), pancreatic cancer (PANC-1, CFPAC-1), prostatic cancer (PC3), breast cancer (MX-1, HCC1806), ovarian cancer (SK-OV-3, OVCAR-3) and lung cancer (HCC827, H460).
Cell culture. Human cancer cell lines including pancreatic (PANC-1 and CFPAC-1), lung (HCC827 and H460), stomach (NCI-N87 and KATOIII), urothelial (J82, RT4), prostatic (PC3), breast (MX-1 and HCC 1806), colorectal (HT-29), and ovarian (SK-OV-3 and OVCAR-3) were obtained from the American Type Culture Collection (ATCC) and cultured at 37° C. in a humidified 95% air/5% CO2 atmosphere in the medium recommended by ATCC.
In vitro cell viability. Cell viability was analyzed as follows: cancer cells including pancreatic (PANC-1 and CFPAC-1), lung (HCC827 and H460), stomach (NCI-N87 and KATOIII), urothelial (J82, RT4), prostatic (PC3) and breast (MX-1 and HCC 1806), colorectal (HT-29) and ovarian (SK-OV-3 and OVCAR-3) were grown on 96 well plates to ˜60% confluence, the cells were starved for 24 h in culture medium containing 0.5% FBS. Cells were then treated with GHRH antagonists MIA602 AVR compounds at concentrations of 1, 2.5 or 5 μM, or vehicle (0.1% DMSO) in quintuplicates for 72 hours. The medium was replaced every 48 hours. Cell viability was measured using CellTiter 96 aqueous one solution kit (Promega). Inhibitory effects of tested AVR compounds in comparison to that of MIA602 are presented as inhibitory potency.
Inhibitory effects of selected AVR compounds in comparison to that of MIA602 are presented as inhibitory potency (e.g., percentage of inhibition). […] The cell lines tested including lung cancer HCC827 (FIG. 2A), pancreatic cancer CFPAC-1 (FIG. 2B), stomach cancer N87 (FIG. 2C), colon cancer HT-29 (FIG. 2D), breast cancers MX-1 and HCC1806 (FIGS. 2 E, F). […]

[2] = tested on: mouse lung fibroblasts (Mlg 2908); assay: Cellular respiration, Seahorse XF Cell Mito Stress Test; type: cell-based
Experimental: Lung fibroblasts. Newborn mouse lung fibroblasts (Mlg 2908) were obtained from the American Type Culture Collection, Manassas, Va. and cultured in Eagle's minimal essential medium. Cells were grown in 6-well plates before incubation with 1 or 5 μM MIA-602 or vehicle, RNA isolation, and oxygen consumption measurements.
Cellular respiration. The effects of MIA-602 on mouse lung fibroblast oxygen consumption was measured using the Agilent Seahorse XF Cell Mito Stress Test (Agilent Technologies, Santa Clara, Calif.) (Divakaruni A, Paradyse A, Ferrick D, Murphy A, Jastroch M (2014). Methods in Enzymology 547:309-354). Fibroblasts were incubated with vehicle, 1 or 5 μM MIA-602 for 24 hours before measurement of oxygen consumption. One day before assay 80,000 fibroblasts were seeded into Seahorse 24-well plates (n=6 wells per condition). Basal respiration was established and oligomycin, FCCP and rotenone plus antimycin A were added sequentially to measure ATP production, uncoupled respiration; and, non-mitochondrial oxygen consumption (Wangpaichitr, Wu C, Li Y, Nguyen D, Kandemir H, Shah S, Chen S, Feun L, Prince J, Kuo M, Savaraj N (2017). Oncotarget 8(30):49275-49292).

CCCC[C@H](NC(=O)[C@@H](NC(=O)[C@H](CC(=O)O)NC(=O)[C@H](CCC(N)=O)NC(=O)[C@H](CC(C)C)NC(=O)[C@H](CC(C)C)NC(=O)[C@H](CCCN)NC(=O)[C@H](Cc1c[nH]cn1)NC(=O)[C@H](C)NC(=O)[C@H](CO)NC(=O)[C@H](CC(C)C)NC(=O)[C@H](CCC(N)=O)NC(=O)[C@H](CC)NC(=O)[C@H](CC(C)C)NC(=O)[C@@H](NC(=O)[C@H](CCCN)NC(=O)[C@H](Cc1c[nH]cn1)NC(=O)[C@H](Cc1ccc(OC)cc1)NC(=O)[C@H](CCCCNC(=N)N)NC(=O)[C@H](C)NC(=O)[C@@H](NC(=O)[C@H](Cc1c(F)c(F)c(F)c(F)c1F)NC(=O)[C@@H](NC(=O)[C@H](C)NC(=O)[C@H](CC(=O)O)NC(=O)[C@@H](CCCNC(=N)N)NC(=O)[C@H](Cc1ccc(O)cc1)NC(=O)CCCCCCCCCCCNC(=O)Cc1ccccc1)[C@@H](C)CC)[C@@H](C)O)C(C)C)[C@@H](C)CC)C(=O)N[C@H](CCCNC(=N)N)C(=O)N[C@@H](CCCCNC(=N)N)C(N)=O [MIA-602, PhAC-Ada, Tyr D-Arg, Asp, Ala, Ile, 5FPhe, Thr, Ala, Har, Tyr(Me), His, Orn, Val, Leu, Abu, Gin, Leu, Ser, Ala, His, Om, Leu, Leu, Gin, Asp, Ile; Nle, D-Arg, Har NH2, reference compound] ({PhAc-12Ado}-Y[dR]DAI[Phe(F5)]TA[hArg]Y(Me)H[Orn]VL[Abu]QLSAH[Orn]LLQDI[Nle][dR][hArg]-NH2)
relative inhibitory potency in comparison to MIA-602, Prostatic PC3 [1]: 1
basal respiration / basal oxygen consumption (in words) ([2]; 5 μM for 24 hours, vs vehicle): increased
maximal, uncoupled respiration (after FCCP) (in words) ([2]; 5 μM for 24 hours, vs vehicle): increased
spare respiratory capacity (in words) ([2]; 5 μM for 24 hours, vs vehicle): increased
non-mitochondrial respiration (after antimycin A and rotenone) (in words) ([2]; 1 and 5 μM for 24 hours): appeared to increase
